Laboratory results from patent publication US7994324B2, “2-aminoquinoline derivatives” (Hoffmann-La Roche Inc., priority 2008, dated 2011).

Columns and labels:
[1] = biological target: T1, recombinant human 5-HT5A receptor (Homo sapiens, UniProt P47898); assay: [3H]LSD radioligand binding assay; conditions: [3H]LSD (approximately 1 nM), membranes from HEK-EBNA cells transiently expressing 5-HT5A receptors; Ki from IC50 by Cheng-Prussoff equation
T1 construct: expressed in transfected cells; host or cells: HEK-EBNA (Human Embryonic Kidney-EBNA) cells, transient cDNA expression; membranes used
T1 sequence (P47898 whole entry): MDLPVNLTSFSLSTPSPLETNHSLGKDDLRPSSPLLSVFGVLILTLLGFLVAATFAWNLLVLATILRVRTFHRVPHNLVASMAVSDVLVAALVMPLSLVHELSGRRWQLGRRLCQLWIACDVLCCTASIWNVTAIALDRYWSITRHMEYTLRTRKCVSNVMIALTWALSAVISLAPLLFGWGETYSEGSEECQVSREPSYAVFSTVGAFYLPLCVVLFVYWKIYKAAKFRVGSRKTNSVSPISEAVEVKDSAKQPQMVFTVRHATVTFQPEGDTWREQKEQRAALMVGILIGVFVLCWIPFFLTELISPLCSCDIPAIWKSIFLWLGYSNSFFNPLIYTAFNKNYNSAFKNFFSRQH
Protocol: A [^3H]LSD radioligand binding assay was used to determine the affinity of the compounds for the recombinant human 5-HT5A receptor, in membranes from transiently (cDNA) expressed 5-HT5A receptors in Human Embryonic Kidney-EBNA (HEK-EBNA) cells. Assay buffer consisted of Tris (50 mM) buffer containing 1 mM EGTA, 10 mM MgCl2 (pH 7.4) and 10 μM pargyline. The binding assay was carried out in 96-well-plates in the presence of [^3H]LSD (approximately 1 nM), approximately 2 μg/well of membrane protein, and 0.5 mg of Ysi-poly-1-lysine SPA beads in a final volume of 200 μl of buffer. Non-specific binding was defined using methiothepin 2 μM. Compounds were tested at 10 concentrations. All assays were conducted in duplicate and repeated at least two times. Assay plates were incubated for 120 min at room temperature before centrifugation. Bound ligand was determined using a Packard Topcount scintillation counter. IC50 values were calculated using a non-linear curve fitting program and Ki values calculated using the Cheng-Prussoff equation.

Row | Structure (SMILES) | Ki [1] [nM] | melting point [°C]
1 | c1ccc2c(c1)CC[C@H]2Nc1ccc2c(NC3CCOCC3)cccc2n1 [Example 3, N^2-(R)-Indan-1-yl-N^5-(tetrahydro-pyran-4-yl)-quinoline-2,5-diamine] | 26 | –
2 | O=C(Cc1ccc(Cl)cc1)Nc1cccc2nc(N[C@@H]3CCc4ccccc43)ccc12 [Example 60, 2-(4-Chloro-phenyl)-N-[2-((R)-indan-1-ylamino)-quinolin-5-yl]-acetamide] | 5.5 | 170
3 | N=C(NO)c1cccc2nc(N[C@@H]3CCc4ccccc43)ccc12 [Example 28, N-Hydroxy-2-((R)-indan-1-ylamino)-quinoline-5-carboxamidine] | 17.4 | 200.5
4 | c1ccc2c(c1)CC[C@H]2Nc1ccc2c(C3CC3)cccc2n1 [Example 44, (5-Cyclopropyl-quinolin-2-yl)-(R)-indan-1-yl-amine] | 27.7 | –
5 | COc1cccc2c1C(Nc1ccc3c(NCCSC)cccc3n1)CO2 (racemic) [Example 39, rac-N^2-(4-Methoxy-2,3-dihydro-benzofuran-3-yl)-N^5-(2-methylsulfanyl-ethyl)-quinoline-2,5-diamine] | 25.2 | –
6 | O=S(=O)(Nc1cccc2nc(N[C@@H]3CCc4ccccc43)ccc12)C1CC1 [Example 17, Cyclopropanesulfonic acid[2-((R)-indan-1-ylamino)-quinolin-5-yl]-amide] | 32.2 | –
7 | COc1ccc(CC(=O)Nc2cccc3nc(N[C@@H]4CCc5ccccc54)ccc23)cc1 [Example 52, N-[2-((R)-Indan-1-ylamino)-quinolin-5-yl]-2-(4-methoxy-phenyl)-acetamide] | – | 175
8 | COc1cccc2c1C(Nc1ccc3c(NC(=O)Cc4cccs4)cccc3n1)CC2 (racemic) [Example 55, rac-N-[2-(7-Methoxy-indan-1-ylamino)-quinolin-5-yl]-2-thiophen-2-yl-acetamide] | – | 194
9 | CN(C)CC(=O)Nc1cccc2nc(N[C@@H]3CCc4ccccc43)ccc12 [Example 32, 2-Dimethylamino-N-[2-((R)-indan-1-ylamino)-quinolin-5-yl]-acetamide] | – | 153
10 | CSCCNc1cccc2nc(N[C@@H]3CCc4ccccc43)ccc12 [Example 5, N^2-(R)-Indan-1-yl-N^5-(2-methylsulfanyl-ethyl)-quinoline-2,5-diamine] | 23.5 | –
11 | COc1cccc2c1C(Nc1ccc3c(NS(=O)(=O)N(C)C)cccc3n1)CC2 (racemic) [Example 20, rac-N′-{2-[(7-methoxy-indan-1-yl)amino]quinolin-5-yl}-N,N-dimethylsulfamide] | 2.3 | –
12 | CNc1cccc2nc(N[C@@H]3CCc4ccccc43)ccc12 [Example 1, N^2-(R)-Indan-1-yl-N^5-methyl-quinoline-2,5-diamine] | 22.5 | –
13 | c1ccc2c(c1)CC[C@H]2Nc1ccc2c(N3CCOCC3)cccc2n1 [Example 4, (R)-Indan-1-yl-(5-morpholin-4-yl-quinolin-2-yl)-amine] | 105 | –
14 | COc1cccc2c1C(Nc1ccc3c(N)cccc3n1)CC2 (racemic) [Example 19, rac-N^2-(7-Methoxy-indan-1-yl)-quinoline-2,5-diamine] | 6.1 | –
15 | O=C(Nc1cccc2nc(N[C@@H]3CCc4ccccc43)ccc12)C1CC1 [Example 22, Cyclopropanecarboxylic acid[2-((R)-indan-1-ylamino)-quinolin-5-yl]-amide] | 68 | –
16 | COc1ccc(CC(=O)Nc2cccc3nc(NC4CCc5cc(F)ccc54)ccc23)cc1 (racemic) [Example 53, rac-N-[2-(5-Fluoro-indan-1-ylamino)-quinolin-5-yl]-2-(4-methoxy-phenyl)-acetamide] | – | 192
17 | O=C(Cc1cccs1)Nc1cccc2nc(N[C@@H]3CCc4ccccc43)ccc12 [Example 46, N-[2-((R)-Indan-1-ylamino)-quinolin-5-yl]-2-thiophen-2-yl-acetamide] | 36.1 | 163.5
18 | COCCOc1cccc2nc(N[C@@H]3CCc4ccccc43)ccc12 [Example 24, (R)-Indan-1-yl-[5-(2-methoxy-ethoxy)-quinolin-2-yl]-amine] | 90.6 | –
19 | CS(=O)(=O)CCNc1cccc2nc(N[C@@H]3CCc4ccccc43)ccc12 [Example 7, N^2-(R)-Indan-1-yl-N^5-(2-methanesulfonyl-ethyl)-quinoline-2,5-diamine] | 24.7 | –

Row | Structure (SMILES) | Ki [1] [nM] | melting point [°C]
20 | Nc1cccc2nc(NC3CCc4cc(F)ccc43)ccc12 (racemic) [Example 37, rac-N^2-[5-Fluoro-indan-1-yl]-quinoline-2,5-diamine] | 12.5 | –
21 | O=C(Cc1ccc(Cl)cc1)Nc1cccc2nc(NC3CCc4cc(F)ccc43)ccc12 (racemic) [Example 51, rac-2-(4-Chloro-phenyl)-N-[2-(5-fluoro-indan-1-ylamino)-quinolin-5-yl]-acetamide] | 9.4 | 221
22 | O=C(Cn1ccnc1)Nc1cccc2nc(N[C@@H]3CCc4ccccc43)ccc12 [Example 47, 2-Imidazol-1-yl-N-[2-((R)-indan-1-ylamino)-quinolin-5-yl]-acetamide] | – | 226
23 | Nc1cccc2nc(N[C@@H]3CCc4ccccc43)ccc12 [Example 16, (R)—N^2-Indan-1-yl-quinoline-2,5-diamine] | 7.2 | –
24 | COc1cccc2c1C(Nc1ccc3c(NC(=O)Cc4cc(F)cc(F)c4)cccc3n1)CC2 (racemic) [Example 56, rac-2-(3,5-Difluoro-phenyl)-N-[2-(7-methoxy-indan-1-ylamino)-quinolin-5-yl]-acetamide] | – | 248
25 | O=C(Cc1cccs1)Nc1cccc2nc(NC3CCc4cc(F)ccc43)ccc12 (racemic) [Example 49, rac-N-[2-(5-Fluoro-indan-1-ylamino)-quinolin-5-yl]-2-thiophen-2-yl-acetamide] | – | 184
26 | COc1cccc2c1C(Nc1ccc3c(NCCS(C)(=O)=O)cccc3n1)CO2 (racemic) [Example 40, N^5-(2-Methanesulfonyl-ethyl)-N^2-(RS)-(4-methoxy-2,3-dihydro-benzofuran-3-yl)-quinoline-2,5-diamine] | 29.1 | 188
27 | O=C(Cc1ccc(F)cc1)Nc1cccc2nc(NC3CCc4cc(F)ccc43)ccc12 (racemic) [Example 48, rac-N-[2-(5-Fluoro-indan-1-ylamino)-quinolin-5-yl]-2-(4-fluoro-phenyl)-acetamide] | 17.6 | 187
28 | O=C(Cc1ccc(F)cc1)Nc1cccc2nc(N[C@@H]3CCc4ccccc43)ccc12 [Example 45, 2-(4-Fluoro-phenyl)-N-[2-((R)-indan-1-ylamino)-quinolin-5-yl]-acetamide] | 11 | 207
29 | O=C(Cc1cc(F)cc(F)c1)Nc1cccc2nc(N[C@@H]3CCc4ccccc43)ccc12 [Example 59, 2-(3,5-Difluoro-phenyl)-N-[2-((R)-indan-1-ylamino)-quinolin-5-yl]-acetamide] | 28.7 | 221
30 | ON=C(c1cccc2nc(N[C@@H]3CCc4ccccc43)ccc12)C1CC1 [Example 31, Cyclopropyl-[2-((R)-indan-1-ylamino)-quinolin-5-yl]-methanone oxime] | 5.8 | 151
31 | COc1cccc2c1C(Nc1ccc3c(NC(=O)Cc4ccc(F)cc4)cccc3n1)CC2 (racemic) [Example 54, rac-2-(4-Fluoro-phenyl)-N-[2-(7-methoxy-indan-1-ylamino)-quinolin-5-yl]-acetamide] | 11 | 195
32 | O=C(Cc1cc(F)cc(F)c1)Nc1cccc2nc(NC3CCc4cc(F)ccc43)ccc12 (racemic) [Example 50, rac-2-(3,5-Difluoro-phenyl)-N-[2-(5-fluoro-indan-1-ylamino)-quinolin-5-yl]-acetamide] | – | 203
33 | COc1ccc(CC(=O)Nc2cccc3nc(NC4CCc5cccc(OC)c54)ccc23)cc1 (racemic) [Example 58, rac-N-[2-(7-Methoxy-indan-1-ylamino)-quinolin-5-yl]-2-(4-methoxy-phenyl)-acetamide] | – | 209
34 | COc1cccc2c1C(Nc1ccc3c(NC(=O)Cc4ccc(Cl)cc4)cccc3n1)CC2 (racemic) [Example 57, rac-2-(4-Chloro-phenyl)-N-[2-(7-methoxy-indan-1-ylamino)-quinolin-5-yl]-acetamide] | 9.1 | 234
35 | Nc1cccc2nc(NC3Cc4ccccc4C3)ccc12 (racemic) [Example 23, rac-N^2-Indan-2-yl-quinoline-2,5-diamine] | 219 | –
36 | O=C(CC1CCOCC1)Nc1cccc2nc(N[C@@H]3CCc4ccccc43)ccc12 [Example 35, N-[2-((R)-Indan-1-ylamino)-quinolin-5-yl]-2-(tetrahydro-pyran-4-yl)-acetamide] | – | 211
37 | C[S+]([O-])CCNc1cccc2nc(N[C@@H]3CCc4ccccc43)ccc12 (stereo partly drawn) [Example 6, N^2-(R)-Indan-1-yl-N^5-(2-methanesulfinyl-ethyl)-quinoline-2,5-diamine] | 26.5 | –
38 | O=C(CN1CCOCC1)Nc1cccc2nc(N[C@@H]3CCc4ccccc43)ccc12 [Example 33, N-[2-((R)-Indan-1-ylamino)-quinolin-5-yl]-2-morpholin-4-yl-acetamide] | – | 179
